One data set has as its system M. abscessus infection. The note with it: mouse model of M. abscessus infection, intrapulmonary delivery; cited from earlier work.
On the set-up of data set [1]: species or system mice. The note with it: mouse, in vivo.
In the next data set the test system is mmpL3. The note with it: in both Mabs and Mtb; cited from earlier work.
Data set [2] concerns CYP2B6, CYP2C8, CYP2C9, CYP2C19, CYP2D6, CYP3A4. In words: CYP inhibition, in vitro panel of six common isoforms. It is filed as biochemical. The note with it: human.
A short description of data set [3]: Cytotoxicity towards HepG2 cell line. The format is cell-based. The note with it: human, HepG2 cells.
The test system of another data set is Mabs. The note with it: for 3 days; cited from earlier work.
The target of another data set is CYP3A4 (Homo sapiens, UniProt P08684). In words: CYP inhibition, CYP3A4. It is filed as biochemical.
Chain of CYP3A4 (P08684 whole entry): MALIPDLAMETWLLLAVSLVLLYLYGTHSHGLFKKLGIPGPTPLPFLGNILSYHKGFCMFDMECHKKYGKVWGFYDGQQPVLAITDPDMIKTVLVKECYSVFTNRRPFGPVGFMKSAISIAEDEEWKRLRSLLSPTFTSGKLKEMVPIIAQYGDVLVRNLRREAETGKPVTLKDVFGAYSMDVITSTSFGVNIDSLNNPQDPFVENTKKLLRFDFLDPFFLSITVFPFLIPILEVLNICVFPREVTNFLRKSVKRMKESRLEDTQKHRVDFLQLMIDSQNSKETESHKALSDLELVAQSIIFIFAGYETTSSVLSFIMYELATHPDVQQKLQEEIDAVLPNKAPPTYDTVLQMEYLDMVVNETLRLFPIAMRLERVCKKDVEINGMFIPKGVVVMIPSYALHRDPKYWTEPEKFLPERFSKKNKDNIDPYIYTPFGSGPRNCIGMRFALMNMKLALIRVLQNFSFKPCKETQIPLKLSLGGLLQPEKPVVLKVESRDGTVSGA
For another data set, the target named is T1, CYP2B6 (Homo sapiens, UniProt P20813).
T1 sequence (P20813 1-491): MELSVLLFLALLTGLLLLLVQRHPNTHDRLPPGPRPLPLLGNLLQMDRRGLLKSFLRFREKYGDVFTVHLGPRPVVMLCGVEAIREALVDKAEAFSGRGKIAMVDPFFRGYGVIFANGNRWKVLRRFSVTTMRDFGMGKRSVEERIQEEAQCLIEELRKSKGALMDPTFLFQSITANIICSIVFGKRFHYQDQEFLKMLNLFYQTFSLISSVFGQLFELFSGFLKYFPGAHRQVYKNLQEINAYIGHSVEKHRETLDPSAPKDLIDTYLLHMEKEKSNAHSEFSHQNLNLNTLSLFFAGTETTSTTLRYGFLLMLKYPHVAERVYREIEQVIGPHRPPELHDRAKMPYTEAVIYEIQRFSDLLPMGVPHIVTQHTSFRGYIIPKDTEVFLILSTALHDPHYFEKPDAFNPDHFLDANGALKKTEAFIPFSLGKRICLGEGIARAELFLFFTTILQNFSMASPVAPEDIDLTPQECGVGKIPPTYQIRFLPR
In words: CYP inhibition, CYP2B6. It is filed as biochemical.

Data set [4] relates to Mycobacterium avium complex. In words: MIC against Mycobacterium avium complex. The format is cell-based. As to conditions: MAC; listed as CRS400393.

With `CC12CC3CC(C)(C1)CC(C(=O)Nc1nc4ccc(OC(F)(F)F)cc4s1)(C3)C2` [CRS400226], the in vivo efficacy result in the data set with M. abscessus infection is “demonstrated in vivo efficacy”.

`CC1CC(C(=O)Nc2nc3c(F)cc(F)cc3s2)CC(C)(C)C1` (stereo not drawn) [Compound 18]: the “single dose toxicity observation” value in data set [1] is on record as “All mice appeared normal with no abnormal behavior observed”. In addition, the “effect on transfer of mycolic acids to cell envelope acceptors” value in the data set with mmpL3 is listed as “affect the transfer of mycolic acids”.

For `CC1CC(C(=O)Nc2nc3ccc(OC(F)(F)F)cc3s2)CC(C)(C)C1` (stereo not drawn) [Compound 32], the results for the IC50 in [2] and in [3] were above 20 µM and above 100 µM, respectively. The “effect on transfer of mycolic acids to cell envelope acceptors” value in the data set on mmpL3 is given as “affect the transfer of mycolic acids”.

On to `CC12CCCC(C(=O)Nc3nc4cc(Cl)cc(Cl)c4s3)(CCC1)C2` [Compound 43], for which, in the data set on Mabs, the “time kill: effect against Mabs” value is reported as “bacteriostatic”. In addition, the inhibition at 10 µM on CYP3A4 and on CYP2B6 was at most 50% in each case. Besides, the “MIC against Mycobacterium avium complex” value in [4] was 1 to 2 µg/mL.

`CC12CCCC(C(=O)Nc3nc4ccc(OC(F)(F)F)cc4s3)(CCC1)C2` [Compound 52]: the inhibition at 10 µM against CYP3A4 and against CYP2B6 was at most 50% throughout.

Broadly, the IC50 is the concentration needed to halve the response being measured. As usually defined, the inhibition is the relative decrease from the control value, in per cent.

Values taken from paper PMC6263154 (Bioorganic & medicinal chemistry letters, 2018).
